Laboratory results: patent US7531554B2, “4-oxoquinoline compound and use thereof as HIV integrase inhibitor” (Japan Tobacco Inc., priority 2004, dated 2009)
Where a name gives a salt, the structure may show the parent alone.

Target: T1, HIV integrase (Human immunodeficiency virus type 1 group M subtype B, UniProt P12497, F1332H)
T1 construct: HIV integrase full length gene (J. Virol., 67, 425-437 (1993)) in which phenylalanine at codon 185 was substituted by histidine; made in house; host or cells: Escherichia coli BL21(DE3)
Assay: Determination of enzyme (HIV integrase) inhibitory activity
Format: biochemical
Conditions: recombinant integrase protein (F185H), donor DNA/target DNA, absorbance at 450 nm
Outline: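 Full-length HIV integrase bearing F185H mutation, E. coli-expressed and purified, preincubated with compound on plate-bound biotinylated donor DNA for 60 min at 37 °C; digoxigenin-labelled target DNA then added for 10 min. Strand transfer detected by peroxidase anti-digoxigenin ELISA at 450 nm; IC50 from inhibition versus no-compound and no-enzyme controls.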

For `CC(=O)N[C@@H]1CCN(c2cc3c(cc2Cc2cccc(Cl)c2F)c(=O)c(C(=O)O)cn3[C@H](CO)C(C)C)C1` [Example 4-27, 7-((3R)-3-(acetylamino)pyrrolidin-1-yl)-6-(3-chloro-2-fluorobenzyl)-1-((1S)-1-(hydroxymethyl)-2-methylpropyl)-4-oxo-1,4-dihydroquinoline-3-carboxylic acid], which IC50 is on record?
The IC50 was 16 nM.

`CC(C)[C@@H](CO)n1cc(C(=O)O)c(=O)c2cc(Cc3cccc(Cl)c3F)c(OCS(=O)(=O)N(C)C)cc21` [Example 4-28, 6-(3-chloro-2-fluorobenzyl)-7-((dimethylamino)sulfonylmethoxy)-1-((1S)-1-(hydroxymethyl)-2-methylpropyl)-4-oxo-1,4-dihydroquinoline-3-carboxylic acid] was tested. Which IC50 did it give?
Its IC50 is 4.5 nM.

With `CC(C)[C@@H](CO)n1cc(C(=O)O)c(=O)c2cc(Cc3cccc(Cl)c3F)c(N3CCN[C@H](C)C3)cc21` [Example 4-29, 6-(3-chloro-2-fluorobenzyl)-1-((1S)-1-(hydroxymethyl)-2-methylpropyl)-7-((3R)-3-methylpiperazin-1-yl)-4-oxo-1,4-dihydroquinoline-3-carboxylic acid] as the compound, how does the IC50 read?
The IC50 was 5.1 nM.

`CC(C)[C@@H](CO)n1cc(C(=O)O)c(=O)c2cc(Cc3cccc(Cl)c3F)c(N3CCN[C@@H](C)C3)cc21` [Example 4-30, 6-(3-chloro-2-fluorobenzyl)-1-((1S)-1-(hydroxymethyl)-2-methylpropyl)-7-((3S)-3-methylpiperazin-1-yl)-4-oxo-1,4-dihydroquinoline-3-carboxylic acid] was tested. Which IC50 did it give?
Its IC50 is 6.1 nM.

For `CC1CN(c2cc3c(cc2Cc2cccc(Cl)c2F)c(=O)c(C(=O)O)cn3[C@H](CO)C(C)C)CC(C)O1` (stereo partly drawn) [Example 4-31, 6-(3-chloro-2-fluorobenzyl)-7-(2,6-dimethylmorpholin-4-yl)-1-((1S)-1-(hydroxymethyl)-2-methylpropyl)-4-oxo-1,4-dihydroquinoline-3-carboxylic acid], which IC50 is on record?
The IC50 was 13 nM.

Which IC50 does the source give for `CC(C)[C@@H](CO)n1cc(C(=O)O)c(=O)c2cc(Cc3cccc(Cl)c3F)c(N3CCSCC3)cc21` [Example 4-32, 6-(3-chloro-2-fluorobenzyl)-1-((1S)-1-(hydroxymethyl)-2-methylpropyl)-4-oxo-7-(thiomorpholin-4-yl)-1,4-dihydroquinoline-3-carboxylic acid] here?
The IC50 was 7.1 nM.

`CC(C)[C@@H](CO)n1cc(C(=O)O)c(=O)c2cc(Cc3cccc(Cl)c3F)c(OCCN3CCNCC3)cc21` [Example 4-33, 6-(3-chloro-2-fluorobenzyl)-1-((1S)-1-(hydroxymethyl)-2-methylpropyl)-4-oxo-7-(2-(piperazin-1-yl)ethoxy)-1,4-dihydroquinoline-3-carboxylic acid dihydrochloride] was tested. Which IC50 did it give?
The IC50 was 5.7 nM.

How did the IC50 turn out when `CC(C)[C@@H](CO)n1cc(C(=O)O)c(=O)c2cc(Cc3cccc(Cl)c3F)c(OCCCCN)cc21` [Example 4-34, 7-(4-aminobutoxy)-6-(3-chloro-2-fluorobenzyl)-1-((1S)-1-(hydroxymethyl)-2-methylpropyl)-4-oxo-1,4-dihydroquinoline-3-carboxylic acid hydrochloride] was run?
The IC50 was 3.9 nM.

`CC(C)[C@@H](CO)n1cc(C(=O)O)c(=O)c2cc(Cc3cccc(Cl)c3F)c(N3CCNC(=O)C3)cc21` [Example 4-35, 6-(3-chloro-2-fluorobenzyl)-1-((1S)-1-(hydroxymethyl)-2-methylpropyl)-4-oxo-7-(3-oxopiperazin-1-yl)-1,4-dihydroquinoline-3-carboxylic acid] was tested. Which IC50 did it give?
The IC50 was 6 nM.

Which IC50 does the source give for `CC(C)[C@@H](CO)n1cc(C(=O)O)c(=O)c2cc(Cc3cccc(Cl)c3F)c(OC3CCOCC3)cc21` [Example 4-36, 6-(3-chloro-2-fluorobenzyl)-1-((1S)-1-(hydroxymethyl)-2-methylpropyl)-4-oxo-7-(tetrahydropyran-4-yloxy)-1,4-dihydroquinoline-3-carboxylic acid] here?
Its IC50 is 5.4 nM.

`CC(C)[C@@H](CO)n1cc(C(=O)O)c(=O)c2cc(Cc3cccc(Cl)c3F)c(O[C@@H]3CCNC3)cc21` [Example 4-37, 6-(3-chloro-2-fluorobenzyl)-1-((1S)-1-(hydroxymethyl)-2-methylpropyl)-4-oxo-7-((3R)-pyrrolidin-3-yloxy)-1,4-dihydroquinoline-3-carboxylic acid hydrochloride] was tested. Which IC50 did it give?
The IC50 was 4.4 nM.

Which IC50 does the source give for `CC(C)[C@@H](CO)n1cc(C(=O)O)c(=O)c2cc(Cc3cccc(Cl)c3F)c(N3CC[C@H](N)C3)cc21` [Example 4-38, 7-((3S)-3-aminopyrrolidin-1-yl)-6-(3-chloro-2-fluorobenzyl)-1-((1S)-1-(hydroxymethyl)-2-methylpropyl)-4-oxo-1,4-dihydroquinoline-3-carboxylic acid] here?
The IC50 was 12 nM.

For `CC(C)[C@@H](CO)n1cc(C(=O)O)c(=O)c2cc(Cc3cccc(Cl)c3F)c(N3CC[C@@H](N)C3)cc21` [Example 4-39, 7-((3R)-3-aminopyrrolidin-1-yl)-6-(3-chloro-2-fluorobenzyl)-1-((1S)-1-(hydroxymethyl)-2-methylpropyl)-4-oxo-1,4-dihydroquinoline-3-carboxylic acid], which IC50 is on record?
Its IC50 is 9.4 nM.

How did the IC50 turn out when `CCOC(=O)N1CCC(Nc2cc3c(cc2Cc2cccc(Cl)c2F)c(=O)c(C(=O)O)cn3[C@H](CO)C(C)C)CC1` [Example 4-40, 6-(3-chloro-2-fluorobenzyl)-7-(1-(ethoxycarbonyl)piperidin-4-ylamino)-1-((1S)-1-(hydroxymethyl)-2-methylpropyl)-4-oxo-1,4-dihydroquinoline-3-carboxylic acid] was run?
The IC50 was 6.8 nM.

With `CC(=O)NCCOc1cc2c(cc1Cc1cccc(Cl)c1F)c(=O)c(C(=O)O)cn2[C@H](CO)C(C)C` [Example 4-41, 7-(2-(acetylamino)ethoxy)-6-(3-chloro-2-fluorobenzyl)-1-((1S)-1-(hydroxymethyl)-2-methylpropyl)-4-oxo-1,4-dihydroquinoline-3-carboxylic acid] as the compound, how does the IC50 read?
The IC50 was 4.5 nM.

How did the IC50 turn out when `CC(C)[C@@H](CO)n1cc(C(=O)O)c(=O)c2cc(Cc3cccc(Cl)c3F)c(NC3CCNCC3)cc21` [Example 4-42, 6-(3-chloro-2-fluorobenzyl)-1-((1S)-1-(hydroxymethyl)-2-methylpropyl)-4-oxo-7-(piperidin-4-ylamino)-1,4-dihydroquinoline-3-carboxylic acid] was run?
The IC50 was 7.9 nM.

With `CC(C)[C@@H](CO)n1cc(C(=O)O)c(=O)c2cc(Cc3cccc(Cl)c3F)c(OCc3ccccc3)cc21` [Example 4-43, 7-benzyloxy-6-(3-chloro-2-fluorobenzyl)-1-((1S)-1-(hydroxymethyl)-2-methylpropyl)-4-oxo-1,4-dihydroquinoline-3-carboxylic acid] as the compound, how does the IC50 read?
Its IC50 is 6.4 nM.

How did the IC50 turn out when `CC(C)[C@@H](CO)n1cc(C(=O)O)c(=O)c2cc(Cc3cccc(Cl)c3F)c(Oc3ccccc3)cc21` [Example 4-44, 6-(3-chloro-2-fluorobenzyl)-1-((1S)-1-(hydroxymethyl)-2-methylpropyl)-4-oxo-7-phenoxy-1,4-dihydroquinoline-3-carboxylic acid] was run?
Its IC50 is 4.9 nM.

Which IC50 does the source give for `CC(=O)N1CCC(Oc2cc3c(cc2Cc2cccc(Cl)c2F)c(=O)c(C(=O)O)cn3[C@H](CO)C(C)C)CC1` [Example 4-45, 7-((1-acetylpiperidin-4-yl)oxy)-6-(3-chloro-2-fluorobenzyl)-1-((1S)-1-(hydroxymethyl)-2-methylpropyl)-4-oxo-1,4-dihydroquinoline-3-carboxylic acid] here?
Its IC50 is 13 nM.

For `CC(C)[C@@H](CO)n1cc(C(=O)O)c(=O)c2cc(Cc3cccc(Cl)c3F)c(O[C@H]3CCNC3)cc21` [Example 4-46, 6-(3-chloro-2-fluorobenzyl)-1-((1S)-1-(hydroxymethyl)-2-methylpropyl)-4-oxo-7-((3S)-pyrrolidin-3-yloxy)-1,4-dihydroquinoline-3-carboxylic acid hydrochloride], which IC50 is on record?
The IC50 was 6.8 nM.

Which IC50 does the source give for `CC(C)[C@@H](CO)n1cc(C(=O)O)c(=O)c2cc(Cc3cccc(Cl)c3F)c(O[C@H]3CCOC3)cc21` [Example 4-47, 6-(3-chloro-2-fluorobenzyl)-1-((1S)-1-(hydroxymethyl)-2-methylpropyl)-4-oxo-7-((3S)-tetrahydrofuran-3-yloxy)-1,4-dihydroquinoline-3-carboxylic acid] here?
The IC50 was 6.6 nM.

`CC(C)[C@@H](CO)n1cc(C(=O)O)c(=O)c2cc(Cc3cccc(Cl)c3F)c(O[C@@H]3CCOC3)cc21` [Example 4-48, 6-(3-chloro-2-fluorobenzyl)-1-((1S)-1-(hydroxymethyl)-2-methylpropyl)-4-oxo-7-((3R)-tetrahydrofuran-3-yloxy)-1,4-dihydroquinoline-3-carboxylic acid] was tested. Which IC50 did it give?
The IC50 was 5.6 nM.

Which IC50 does the source give for `CC(C)[C@@H](CO)n1cc(C(=O)O)c(=O)c2cc(Cc3cccc(Cl)c3F)c(OCCNS(C)(=O)=O)cc21` [Example 4-49, 6-(3-chloro-2-fluorobenzyl)-1-((1S)-1-(hydroxymethyl)-2-methylpropyl)-7-(2-(mesylamino)ethoxy)-4-oxo-1,4-dihydroquinoline-3-carboxylic acid] here?
Its IC50 is 5.1 nM.

With `CC(C)[C@@H](CO)n1cc(C(=O)O)c(=O)c2cc(Cc3cccc(Cl)c3F)c(OCC(=O)O)cc21` [Example 4-50, 7-(carboxymethoxy)-6-(3-chloro-2-fluorobenzyl)-1-((1S)-1-(hydroxymethyl)-2-methylpropyl)-4-oxo-1,4-dihydroquinoline-3-carboxylic acid] as the compound, how does the IC50 read?
The IC50 was 5.3 nM.

With `CC(C)[C@@H](CO)n1cc(C(=O)O)c(=O)c2cc(Cc3cccc(Cl)c3F)c(OCCN3CCN(C)CC3)cc21` [Example 4-51, 6-(3-chloro-2-fluorobenzyl)-1-((1S)-1-(hydroxymethyl)-2-methylpropyl)-7-(2-(4-methylpiperazin-1-yl)ethoxy)-4-oxo-1,4-dihydroquinoline-3-carboxylic acid ditrifluoroacetate] as the compound, how does the IC50 read?
The IC50 was 6 nM.

How did the IC50 turn out when `CC(C)[C@@H](CO)n1cc(C(=O)O)c(=O)c2cc(Cc3cccc(Cl)c3F)c(OCS(N)(=O)=O)cc21` [Example 4-52, 7-((aminosulfonyl)methoxy)-6-(3-chloro-2-fluorobenzyl)-1-((1S)-1-(hydroxymethyl)-2-methylpropyl)-4-oxo-1,4-dihydroquinoline-3-carboxylic acid] was run?
Its IC50 is 6.6 nM.
